Assay results as given in ChEMBL document CHEMBL1201862, “PubChem BioAssay data set” (2004).
Active and inactive are the calls of the source.

Experiments:
[1] = biological target: T1, Ubiquitin-conjugating enzyme E2 N (Homo sapiens, UniProt P61088); format: functional;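 further: Dose-response confirmation in a TR-FRET assay detecting UBC13-driven polyubiquitin chain formation, inhibition measured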
T1 sequence (P61088 whole entry): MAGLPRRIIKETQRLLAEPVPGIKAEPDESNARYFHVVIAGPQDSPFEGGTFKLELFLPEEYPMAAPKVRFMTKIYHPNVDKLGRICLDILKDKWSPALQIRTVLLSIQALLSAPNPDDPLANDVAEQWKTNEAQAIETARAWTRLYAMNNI

[2] = biological target: 72 kDa type IV collagenase (Homo sapiens, UniProt P08253); assay: Dose Response validation of uHTS RPN11 inhibitor hits using a MMP-2 Fluorescence assay.; format: functional
Sequence of 72 kDa type IV collagenase (P08253 whole entry): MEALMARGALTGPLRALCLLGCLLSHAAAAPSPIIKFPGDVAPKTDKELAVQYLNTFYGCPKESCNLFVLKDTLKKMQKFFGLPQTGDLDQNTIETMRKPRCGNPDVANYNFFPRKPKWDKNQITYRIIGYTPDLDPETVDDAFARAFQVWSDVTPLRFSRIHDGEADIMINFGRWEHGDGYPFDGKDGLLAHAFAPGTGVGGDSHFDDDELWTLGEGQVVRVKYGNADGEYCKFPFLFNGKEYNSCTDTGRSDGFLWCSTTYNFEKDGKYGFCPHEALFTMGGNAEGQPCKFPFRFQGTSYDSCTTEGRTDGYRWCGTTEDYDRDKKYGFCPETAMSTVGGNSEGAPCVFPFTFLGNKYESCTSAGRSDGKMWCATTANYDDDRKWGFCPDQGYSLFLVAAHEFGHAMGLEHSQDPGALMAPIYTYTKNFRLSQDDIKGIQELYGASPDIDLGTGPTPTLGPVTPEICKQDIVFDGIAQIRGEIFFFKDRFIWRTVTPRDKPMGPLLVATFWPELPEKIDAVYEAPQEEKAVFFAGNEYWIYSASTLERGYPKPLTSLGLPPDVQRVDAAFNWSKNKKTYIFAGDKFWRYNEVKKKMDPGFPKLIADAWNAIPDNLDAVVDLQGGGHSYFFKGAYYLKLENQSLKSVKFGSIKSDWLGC

Prothrombin = Prothrombin (Bos taurus, UniProt P00735); assay: thrombin inhibition, dose response, biochemical, fluorescence polarization, uHTS hits (AID 602369); format: functional
[3] = biological target: 26S proteasome non-ATPase regulatory subunit 14 (Homo sapiens, UniProt O00487); assay: inhibition of proteasome subunit RPN11 – biochemical, fluorescence polarization, uHTS hits, confirmation (AID 602368); format: functional
Sequence of 26S proteasome non-ATPase regulatory subunit 14 (O00487 whole entry): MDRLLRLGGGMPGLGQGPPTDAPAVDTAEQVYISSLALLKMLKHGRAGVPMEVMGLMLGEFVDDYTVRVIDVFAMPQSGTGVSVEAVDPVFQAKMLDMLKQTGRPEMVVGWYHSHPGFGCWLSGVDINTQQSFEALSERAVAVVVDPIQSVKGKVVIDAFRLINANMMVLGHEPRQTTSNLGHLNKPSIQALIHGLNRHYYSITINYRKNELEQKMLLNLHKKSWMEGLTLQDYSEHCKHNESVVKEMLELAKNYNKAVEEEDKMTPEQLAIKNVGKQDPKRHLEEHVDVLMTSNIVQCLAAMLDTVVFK

[4] = biological target: T2, Endoribonuclease toxin MazF (Escherichia coli K-12, UniProt P0AE70); assay: MazF toxin RNase activators, dose response, biochemical, fluorescence, single-stranded RNA substrate, uHTS hits (AID 588481); format: functional
T2 sequence (P0AE70 whole entry): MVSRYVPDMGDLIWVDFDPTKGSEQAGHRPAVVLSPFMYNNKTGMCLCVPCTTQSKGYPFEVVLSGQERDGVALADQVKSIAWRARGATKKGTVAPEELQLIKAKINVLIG

[5] = biological target: T2, Endoribonuclease toxin MazF; assay: fluorescent RNA oligo signal without MazF, dose response, counter-screen for MazEF activator project, biochemical, fluorescence, single-stranded RNase substrate (AID 588502); format: functional
Large T antigen = Large T antigen (Simian virus 40, UniProt P03070); format: functional, Betapolyomavirus macacae;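 further: Confirmatory-stage PubChem screen for compounds that inhibit SV40 T antigen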
Sequence of Large T antigen (P03070 whole entry): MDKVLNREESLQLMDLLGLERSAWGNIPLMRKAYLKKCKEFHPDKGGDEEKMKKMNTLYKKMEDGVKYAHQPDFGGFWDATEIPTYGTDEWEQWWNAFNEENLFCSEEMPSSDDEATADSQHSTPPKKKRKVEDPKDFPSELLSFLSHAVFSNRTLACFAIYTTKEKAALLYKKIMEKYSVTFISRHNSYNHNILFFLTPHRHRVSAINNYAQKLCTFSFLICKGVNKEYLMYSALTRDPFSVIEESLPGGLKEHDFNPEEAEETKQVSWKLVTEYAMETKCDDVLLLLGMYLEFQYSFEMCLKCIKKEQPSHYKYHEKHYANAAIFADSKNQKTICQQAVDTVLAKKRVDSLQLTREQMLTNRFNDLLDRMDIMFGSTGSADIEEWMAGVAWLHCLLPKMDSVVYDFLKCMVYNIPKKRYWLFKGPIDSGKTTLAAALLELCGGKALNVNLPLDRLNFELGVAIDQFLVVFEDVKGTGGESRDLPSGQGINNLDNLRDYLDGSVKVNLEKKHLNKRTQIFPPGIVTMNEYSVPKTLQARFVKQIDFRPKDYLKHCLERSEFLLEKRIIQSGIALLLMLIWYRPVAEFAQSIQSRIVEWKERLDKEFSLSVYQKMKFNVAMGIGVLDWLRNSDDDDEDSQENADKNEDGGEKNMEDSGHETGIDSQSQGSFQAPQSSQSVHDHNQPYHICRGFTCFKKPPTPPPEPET

Cytochrome P450 2D6 = Cytochrome P450 2D6 (Homo sapiens, UniProt P10635);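 further: CYP2D6 member of a cytochrome P450 panel assay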
Sequence of Cytochrome P450 2D6 (P10635 whole entry): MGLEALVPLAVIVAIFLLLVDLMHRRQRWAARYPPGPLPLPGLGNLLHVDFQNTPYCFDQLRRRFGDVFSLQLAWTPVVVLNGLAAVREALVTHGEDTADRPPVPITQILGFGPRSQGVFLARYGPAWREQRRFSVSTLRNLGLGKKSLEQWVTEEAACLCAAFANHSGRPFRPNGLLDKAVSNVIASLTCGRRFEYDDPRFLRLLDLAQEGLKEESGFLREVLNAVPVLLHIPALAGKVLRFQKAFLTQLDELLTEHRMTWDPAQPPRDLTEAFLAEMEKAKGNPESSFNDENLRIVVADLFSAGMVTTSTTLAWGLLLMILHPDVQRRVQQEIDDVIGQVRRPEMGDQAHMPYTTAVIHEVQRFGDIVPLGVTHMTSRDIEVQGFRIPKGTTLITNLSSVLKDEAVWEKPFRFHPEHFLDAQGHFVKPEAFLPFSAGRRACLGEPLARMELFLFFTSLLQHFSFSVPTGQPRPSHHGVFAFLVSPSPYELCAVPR

Genome polyprotein = Genome polyprotein (dengue virus type 2, UniProt P29990); assay: Dengue-2 NS5 methyltransferase inhibitors, primary screen, biochemical, confirmation dose response (AID 588689); format: functional
Sequence of Genome polyprotein (P29990 2492-3391 limits assumed): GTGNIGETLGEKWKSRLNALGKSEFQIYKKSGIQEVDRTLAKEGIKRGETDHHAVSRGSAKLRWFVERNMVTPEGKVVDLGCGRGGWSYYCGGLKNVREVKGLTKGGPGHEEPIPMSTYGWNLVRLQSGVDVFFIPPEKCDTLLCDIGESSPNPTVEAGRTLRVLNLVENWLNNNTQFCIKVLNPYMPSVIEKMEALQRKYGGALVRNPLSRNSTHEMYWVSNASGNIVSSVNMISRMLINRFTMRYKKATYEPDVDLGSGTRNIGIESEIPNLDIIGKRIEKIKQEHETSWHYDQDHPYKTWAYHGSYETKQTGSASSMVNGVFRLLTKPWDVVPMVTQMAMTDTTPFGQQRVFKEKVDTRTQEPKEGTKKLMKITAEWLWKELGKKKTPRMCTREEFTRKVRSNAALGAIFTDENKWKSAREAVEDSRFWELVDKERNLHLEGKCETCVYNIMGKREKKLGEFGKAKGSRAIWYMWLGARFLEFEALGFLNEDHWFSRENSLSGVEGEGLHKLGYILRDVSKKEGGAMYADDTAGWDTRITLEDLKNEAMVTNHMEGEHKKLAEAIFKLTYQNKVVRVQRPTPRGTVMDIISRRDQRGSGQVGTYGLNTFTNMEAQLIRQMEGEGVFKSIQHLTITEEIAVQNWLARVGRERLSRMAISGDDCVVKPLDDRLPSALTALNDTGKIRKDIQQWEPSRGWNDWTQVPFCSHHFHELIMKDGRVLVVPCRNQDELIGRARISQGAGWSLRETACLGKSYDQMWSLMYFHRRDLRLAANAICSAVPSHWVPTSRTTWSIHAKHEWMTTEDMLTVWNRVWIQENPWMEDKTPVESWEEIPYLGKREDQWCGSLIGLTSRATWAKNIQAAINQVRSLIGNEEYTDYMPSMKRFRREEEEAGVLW

[6] = HEp-2 cell cytotoxicity, dose response, cytotoxicity control for RSV inhibitor project, HTS (AID 2410); format: functional; conditions: human respiratory syncytial virus
[7] = CRF-BP/CRF-R2 complex antagonists, dose response, cell-based, uHTS hits, 384-well (AID 651639); format: functional, Homo sapiens; conditions: read-out: IC50_Mean
[8] = biological target: FAD-linked sulfhydryl oxidase ALR (Homo sapiens, UniProt P55789); assay: inhibitors of human ALR sulfhydryl oxidase, dose response, biochemical, H2O2 detection, luminescence, cherry-pick (AID 493248)
Sequence of FAD-linked sulfhydryl oxidase ALR (P55789 whole entry): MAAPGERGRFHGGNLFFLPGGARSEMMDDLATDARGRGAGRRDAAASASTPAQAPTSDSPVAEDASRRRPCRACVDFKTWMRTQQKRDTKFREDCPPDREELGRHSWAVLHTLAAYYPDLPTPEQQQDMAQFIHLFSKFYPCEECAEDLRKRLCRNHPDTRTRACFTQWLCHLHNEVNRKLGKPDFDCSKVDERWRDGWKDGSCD

[9] = biological target: T3, Corticotropin-releasing factor receptor 2/Corticotropin-releasing factor-binding protein (Homo sapiens, UniProt P24387+Q13324); assay: Dose Response confirmation of uHTS hits for small molecule antagonists of the CRF-binding protein and CRF-R2 receptor complex.; format: functional; conditions: read-out: IC50_Mean
T3 sequence (Q13324 whole entry): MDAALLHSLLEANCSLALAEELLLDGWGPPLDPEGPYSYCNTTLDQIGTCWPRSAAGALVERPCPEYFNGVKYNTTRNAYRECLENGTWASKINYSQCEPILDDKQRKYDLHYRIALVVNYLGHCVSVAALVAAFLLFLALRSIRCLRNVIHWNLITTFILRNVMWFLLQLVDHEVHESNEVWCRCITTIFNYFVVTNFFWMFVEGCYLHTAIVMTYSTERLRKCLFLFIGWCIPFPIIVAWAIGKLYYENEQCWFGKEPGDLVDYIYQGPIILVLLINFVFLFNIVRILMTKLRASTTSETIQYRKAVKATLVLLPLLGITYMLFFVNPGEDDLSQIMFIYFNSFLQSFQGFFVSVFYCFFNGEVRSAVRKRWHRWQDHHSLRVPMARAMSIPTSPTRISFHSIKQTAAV
T3 sequence (P24387 whole entry): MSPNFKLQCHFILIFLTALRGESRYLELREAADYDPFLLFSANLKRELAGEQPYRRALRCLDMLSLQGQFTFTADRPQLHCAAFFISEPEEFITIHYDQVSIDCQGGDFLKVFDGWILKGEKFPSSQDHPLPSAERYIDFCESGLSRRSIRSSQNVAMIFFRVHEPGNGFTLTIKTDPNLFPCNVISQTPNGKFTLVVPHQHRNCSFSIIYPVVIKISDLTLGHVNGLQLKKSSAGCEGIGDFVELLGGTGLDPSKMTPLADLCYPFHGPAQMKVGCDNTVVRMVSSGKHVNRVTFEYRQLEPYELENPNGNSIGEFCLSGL

[10] = biological target: T3, Corticotropin-releasing factor receptor 2/Corticotropin-releasing factor-binding protein; assay: activators of CRF receptor 2 with binding protein – uHTS hits, confirmation (AID 602473); format: functional; conditions: read-out: EC50_Mean
Cytochrome P450 2C19 = Cytochrome P450 2C19 (Homo sapiens, UniProt P33261); assay: Cytochrome panel assay with activity outcomes. Panel member name: p450-cyp2c19 Compounds with AC50 equal or less than 10 uM are considered active; format: functional; conditions: read-out: AC50
Sequence of Cytochrome P450 2C19 (P33261 whole entry): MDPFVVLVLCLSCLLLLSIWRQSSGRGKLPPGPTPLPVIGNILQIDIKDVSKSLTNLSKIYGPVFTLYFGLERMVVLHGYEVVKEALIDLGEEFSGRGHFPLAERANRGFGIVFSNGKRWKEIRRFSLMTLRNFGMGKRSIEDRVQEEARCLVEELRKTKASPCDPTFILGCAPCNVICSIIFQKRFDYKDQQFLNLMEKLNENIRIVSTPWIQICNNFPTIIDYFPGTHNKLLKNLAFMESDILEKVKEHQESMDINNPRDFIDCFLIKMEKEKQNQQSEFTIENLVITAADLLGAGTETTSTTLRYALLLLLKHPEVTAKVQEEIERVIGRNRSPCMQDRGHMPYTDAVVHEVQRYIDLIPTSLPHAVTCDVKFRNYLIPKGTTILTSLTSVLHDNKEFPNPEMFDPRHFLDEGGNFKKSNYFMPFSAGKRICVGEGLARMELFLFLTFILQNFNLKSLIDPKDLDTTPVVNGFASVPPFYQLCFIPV

Cytochrome P450 2C9 = Cytochrome P450 2C9 (Homo sapiens, UniProt P11712)
Sequence of Cytochrome P450 2C9 (P11712 whole entry): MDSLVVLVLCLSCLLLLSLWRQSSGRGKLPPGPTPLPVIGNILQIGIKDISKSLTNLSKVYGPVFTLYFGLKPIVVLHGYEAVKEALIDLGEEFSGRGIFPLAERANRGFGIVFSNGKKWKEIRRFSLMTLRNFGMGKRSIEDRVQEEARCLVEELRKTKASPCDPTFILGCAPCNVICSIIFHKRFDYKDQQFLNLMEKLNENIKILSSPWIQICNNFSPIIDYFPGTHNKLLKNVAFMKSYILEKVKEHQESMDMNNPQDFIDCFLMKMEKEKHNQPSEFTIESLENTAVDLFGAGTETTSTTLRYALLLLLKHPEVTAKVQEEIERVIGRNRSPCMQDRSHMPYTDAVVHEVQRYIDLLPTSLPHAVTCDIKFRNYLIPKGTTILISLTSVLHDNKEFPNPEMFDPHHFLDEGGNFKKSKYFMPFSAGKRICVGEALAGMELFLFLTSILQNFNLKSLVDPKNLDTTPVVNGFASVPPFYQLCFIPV

Cytochrome P450 1A2 = biological target: T4, Cytochrome P450 1A2 (Homo sapiens, UniProt P05177);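 further: PubChem cytochrome P450 panel assay, CYP1A2 panel member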
T4 sequence (P05177 whole entry): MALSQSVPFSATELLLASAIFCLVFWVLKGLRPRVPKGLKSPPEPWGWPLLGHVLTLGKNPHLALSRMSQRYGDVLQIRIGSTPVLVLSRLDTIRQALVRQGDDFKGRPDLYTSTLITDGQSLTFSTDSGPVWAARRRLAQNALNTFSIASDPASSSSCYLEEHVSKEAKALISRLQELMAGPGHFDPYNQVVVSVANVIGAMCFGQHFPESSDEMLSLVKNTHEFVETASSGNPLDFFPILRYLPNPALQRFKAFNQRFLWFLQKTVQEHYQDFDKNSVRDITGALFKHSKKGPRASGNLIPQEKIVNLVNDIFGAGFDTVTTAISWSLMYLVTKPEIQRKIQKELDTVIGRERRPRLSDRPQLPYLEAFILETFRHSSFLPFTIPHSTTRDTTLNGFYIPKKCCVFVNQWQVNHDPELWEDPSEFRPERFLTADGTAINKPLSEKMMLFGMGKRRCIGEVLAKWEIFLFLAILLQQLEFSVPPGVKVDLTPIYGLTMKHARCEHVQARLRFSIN

[11] = Counterscreen for inhibitors of Trypanosoma brucei methionyl tRNA synthetase (MetRS): Luminescence-based cell-based high throughput dose response assay to identify compounds that are cytotoxic to Jurkat human T lymphocyte cells.; format: functional
[12] = biological target: T5, Methionyl-tRNA synthetase, putative (Trypanosoma brucei brucei, UniProt Q38C91); format: functional, Trypanosoma brucei brucei strain 927/4 GUTat10.1
T5 sequence (Q38C91 whole entry): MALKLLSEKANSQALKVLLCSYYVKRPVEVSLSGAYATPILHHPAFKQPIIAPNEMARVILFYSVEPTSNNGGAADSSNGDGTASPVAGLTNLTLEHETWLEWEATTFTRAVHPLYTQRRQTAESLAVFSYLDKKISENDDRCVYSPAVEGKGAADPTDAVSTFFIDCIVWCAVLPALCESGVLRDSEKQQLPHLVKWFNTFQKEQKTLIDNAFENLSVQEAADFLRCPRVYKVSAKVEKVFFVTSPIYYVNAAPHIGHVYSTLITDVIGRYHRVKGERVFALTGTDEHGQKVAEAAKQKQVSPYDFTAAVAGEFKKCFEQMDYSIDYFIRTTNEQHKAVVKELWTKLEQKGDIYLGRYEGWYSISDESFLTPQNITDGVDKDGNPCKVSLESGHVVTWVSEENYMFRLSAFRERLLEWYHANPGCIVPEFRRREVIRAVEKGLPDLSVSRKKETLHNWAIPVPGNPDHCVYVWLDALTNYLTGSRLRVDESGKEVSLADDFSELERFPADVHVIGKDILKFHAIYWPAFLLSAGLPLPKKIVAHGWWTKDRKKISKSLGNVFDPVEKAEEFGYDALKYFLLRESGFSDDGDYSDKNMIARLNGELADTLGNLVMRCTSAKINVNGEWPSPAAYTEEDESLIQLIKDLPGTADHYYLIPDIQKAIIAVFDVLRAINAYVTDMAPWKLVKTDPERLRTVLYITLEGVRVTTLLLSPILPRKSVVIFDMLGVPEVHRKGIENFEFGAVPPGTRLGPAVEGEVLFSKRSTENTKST

[13] = biological target: T5, Methionyl-tRNA synthetase, putative; format: functional, Trypanosoma brucei brucei strain 927/4 GUTat10.1; remark: listed apart in the source
[14] = biological target: T6, Sentrin-specific protease 8 (Homo sapiens, UniProt Q96LD8); format: functional
T6 sequence (Q96LD8 whole entry): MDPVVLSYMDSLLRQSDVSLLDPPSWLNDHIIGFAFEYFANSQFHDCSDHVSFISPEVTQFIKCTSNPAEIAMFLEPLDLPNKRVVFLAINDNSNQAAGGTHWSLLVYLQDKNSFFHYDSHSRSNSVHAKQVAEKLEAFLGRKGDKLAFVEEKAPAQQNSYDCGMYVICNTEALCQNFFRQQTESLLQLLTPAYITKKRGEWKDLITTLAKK

[15] = biological target: T6, Sentrin-specific protease 8; format: functional; remark: listed apart in the source
[16] = Shn3 3'UTR reporter inhibitors, dose response, cell-based, Clone20 osteoblasts, firefly luciferase, cherry-picked (AID 624132); format: functional;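 further: firefly luciferase luminescence from reporter carrying the Shn3 3'UTR in osteoblasts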
[17] = control 3'UTR Renilla luciferase suppression, dose response, counter-screen for Shn3 inhibitor project, cell-based, Clone20-Shn3RL, cherry-picked (AID 624133); format: functional
[18] = HepG2 cell cytotoxicity, dose response, cytotoxicity control for Shn3 inhibitor project, CellTiter-Glo, cherry-picked (AID 624134); format: functional, cell-based
INS1 = assay: beta cell apoptosis inhibitors, cytokine rescue, dose response, luminescence, retest (AID 449756); format: functional, cell-based; conditions: Rattus norvegicus;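 further: cell death triggered by IL-1 beta plus TNF-alpha plus IFN-gamma mixture; protective hits raise ATP signal compared with cytokine alone wells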

## CC(C)n1ncc2c(C(=O)Nc3ccc(S(N)(=O)=O)cc3)cc(C3CC3)nc21
[1]
  IC50: > 20 µM (inactive)
[2]
  IC50: > 100 µM (inactive)
Prothrombin
  IC50: 73.6 µM (active)
[3]
  IC50: 6.85 µM (active)

## CCc1cccc(CC)c1NC(=O)COC(=O)/C(C#N)=C/c1ccc(OC)cc1
[4]
  EC50: > 99 µM (inactive)
[5]
  EC50: > 99 µM (inactive)

## N#C/C(=C\c1ccc(O)c(O)c1)C(=O)Nc1ccccc1
[2]
  IC50: > 100 µM (inactive)
Prothrombin
  IC50: 67.9 µM (active)
Large T antigen
  IC50: 13.1 µM (active)
[3]
  IC50: 1.3 µM (active)
Cytochrome P450 2D6
  AC50: 39.8 µM (inconclusive)

## Cc1ccc(/C=C2/C(=O)NC(=O)N(CC3CCCO3)C2=O)s1 (configuration not stated)
Genome polyprotein
  IC50: > 100 µM (active)

## Cc1nn(-c2ccccc2)c(C)c1/C=N/n1c(S)nnc1-c1ccccc1Br
[6]
  CC50: 23.2 µM (active)
[7]
  IC50: 10.9 µM (active)
[8]
  AC50: 3.44 µM (active)
[9]
  IC50: 3.92 µM (active)
[10]
  EC50: > 53 µM (inactive)

## CC1(C)CC2(CC(C)(C(=O)CSc3nc4ccccc4s3)OC2=O)C(=O)O1 (configuration not stated)
Cytochrome P450 2C19
  AC50: 8.91 µM (inconclusive)
Cytochrome P450 2C9
  AC50: inconclusive
Cytochrome P450 1A2
  AC50: 28.2 µM (inconclusive)

## Cc1cccc(OCCCC(=O)Nc2ccc(Br)cc2)c1
[11]
  IC50: 83.3 µM (inactive)
[12]
  IC50: 32 µM (inactive)
[13]
  IC50: 119 µM (inactive)

## COc1ccc(-c2nnc(SC)nc2-c2ccc(OC)c([N+](=O)[O-])c2)cc1[N+](=O)[O-]
[14]
  IC50: 46.9 µM (active)
[15]
  IC50: > 100 µM (inactive)

## CC/C(=N/Nc1cccc(C)c1)c1cnnc(SC)n1
[4]
  EC50: > 99 µM (inactive)
[5]
  EC50: > 99 µM (inactive)

## C=CCn1c(SCc2c(C)noc2C)nc2sc(C)c(C)c2c1=O
[7]
  IC50: > 20 µM (inactive)
[9]
  IC50: < 0.368 µM (active)
[10]
  EC50: > 53 µM (inactive)

## O=[N+]([O-])c1ccc(Sc2cccc3cccnc23)c([N+](=O)[O-])c1
[16]
  AC50: 1.71 µM (active)
[17]
  AC50: 15.2 µM (active)
[2]
  IC50: > 100 µM (inactive)
Prothrombin
  IC50: > 100 µM (inactive)
[18]
  AC50: > 70 µM (inactive)
INS1
  AC50: 1.18 µM (active)
[3]
  IC50: 27.6 µM (active)

## O=C(O)c1ccc2c(c1)C(=O)N(c1ccc(/C=C/C(=O)c3ccccc3)cc1)C2=O
Genome polyprotein
  IC50: 56.7 µM (active)

## O=C1NC(=O)N(C2CCCCC2)C(=O)/C1=C\C=C\Nc1ccccc1
[4]
  EC50: > 99 µM (inactive)
[5]
  EC50: 9.49 µM (active)

## CCOC(=O)c1c(NC(=O)Nc2ccc(C)cc2)sc2c1CCN(C)C2
[4]
  EC50: > 99 µM (inactive)
[5]
  EC50: > 99 µM (inactive)

## C#CCOc1c(Br)cc(/C=C2/C(=O)ON=C2C)cc1OC
Genome polyprotein
  IC50: > 100 µM (active)

## O=C1NN(c2ccccc2)C(=O)/C1=C\c1cccc(OC(=O)c2cccs2)c1
Genome polyprotein
  IC50: 21.2 µM (active)

## Cc1ccc(CO/N=C\Cc2snc(Sc3ncc(C(F)(F)F)cc3Cl)c2C#N)cc1
[2]
  IC50: > 100 µM (inactive)
Prothrombin
  IC50: 54.2 µM (active)
[3]
  IC50: 14.6 µM (active)

## COc1cccc(NC(=S)NC(Cc2ccccc2)c2ccccc2)c1 (configuration not stated)
[7]
  IC50: 2.73 µM (active)
[9]
  IC50: 3.35 µM (active)
[10]
  EC50: > 53 µM (inactive)

## CC(NC(=O)COC(=O)c1ccc([N+](=O)[O-])s1)c1ccccc1 (configuration not stated)
[14]
  IC50: 17.1 µM (active)
[15]
  IC50: 6.55 µM (active)
